Results: patent publication US20190292167A1, “HETEROAROMATIC COMPOUNDS USEFUL FOR THE TREATMENT OF PROLIFERATIVE DISEASES” (Syros Pharmaceuticals, Inc., priority 2013, published 2019)
Counter-ions that a name gives are not always drawn. Like-named read-outs stand apart in the source and are kept apart here.

How the values were obtained:
[1] = biological target: T1, CDK7 (Homo sapiens, UniProt P50613); assay: Adapta kinase assay (Life Technologies) against CDK7, co-factors cyclin H and MNAT1; type: biochemical; conditions: read-out: CDK7 Inhibition
T1 construct: purchased Life Technologies (Adapta kinase assay service)
Description: Compounds of the invention were assayed for activity against CDK7 at Life Technologies™ (Grand Island, N.Y.) using their commercially available Adapta® kinase assay services. […] Details of the assay, including the substrate used for CDK7 kinase, are available on the Life Technologies web site (http://www.lifetechnologies.com/us/en/homellife-science/drug-discovery/target-and-lead-identification-and-validation/kinasebiology/kinase-activity-assays.html).
The co-factors used for the assay were cyclin H and MNAT1.

[2] = test system: Jurkat; assay: Inhibition of cell proliferation, CellTiter-Glo, 72 hour; type: cell-based; conditions: Blood cancer cell line, 72 hour, read-out: Inhibition of Proliferation of Jurkat Cells
Description: The following cancer cell lines were tested with the media conditions indicated: […]

T1 sequence (P50613 whole entry): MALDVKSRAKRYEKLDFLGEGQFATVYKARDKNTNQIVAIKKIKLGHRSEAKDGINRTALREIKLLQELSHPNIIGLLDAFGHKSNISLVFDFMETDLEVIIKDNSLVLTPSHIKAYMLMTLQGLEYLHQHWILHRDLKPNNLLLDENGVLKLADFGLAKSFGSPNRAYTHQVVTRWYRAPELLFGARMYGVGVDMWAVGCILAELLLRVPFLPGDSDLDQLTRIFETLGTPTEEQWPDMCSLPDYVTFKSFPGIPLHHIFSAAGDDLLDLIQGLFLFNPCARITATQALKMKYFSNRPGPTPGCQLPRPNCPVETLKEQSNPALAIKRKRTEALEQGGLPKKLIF
T1 sequence (P51946 whole entry partner): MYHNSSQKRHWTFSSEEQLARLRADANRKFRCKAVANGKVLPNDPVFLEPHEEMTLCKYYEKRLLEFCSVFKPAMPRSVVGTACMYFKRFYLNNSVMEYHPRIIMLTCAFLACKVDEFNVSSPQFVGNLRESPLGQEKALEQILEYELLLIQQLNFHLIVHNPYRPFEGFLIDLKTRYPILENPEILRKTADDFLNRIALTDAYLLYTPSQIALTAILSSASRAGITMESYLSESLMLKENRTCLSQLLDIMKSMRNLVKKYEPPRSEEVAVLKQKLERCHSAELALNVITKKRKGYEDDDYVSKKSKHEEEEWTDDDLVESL
T1 sequence (P51948 whole entry partner): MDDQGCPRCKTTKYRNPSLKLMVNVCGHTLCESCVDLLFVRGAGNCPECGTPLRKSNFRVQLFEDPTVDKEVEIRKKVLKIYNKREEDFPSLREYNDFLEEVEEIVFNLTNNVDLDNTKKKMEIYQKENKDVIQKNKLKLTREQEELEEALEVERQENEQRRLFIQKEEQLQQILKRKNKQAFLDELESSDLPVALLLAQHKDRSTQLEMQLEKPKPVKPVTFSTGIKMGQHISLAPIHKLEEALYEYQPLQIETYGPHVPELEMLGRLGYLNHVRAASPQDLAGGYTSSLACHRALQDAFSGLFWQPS

Row | IC50 [1] | IC50 ([2]; Homo sapiens, Jurkat, 72 h) | IC50 [2] | SMILES
1 | < 0.1 µM | 0.5 to 5 µM |  | NCCC(=O)Nc1cccc(Nc2ncc(Cl)c(-c3c[nH]c4ccccc34)n2)c1 [Compound 306, 3-amino-N-(3-(5-chloro-4-(1H-indol-3-yl)pyrimidin-2-ylamino)phenyl) propanamide.TFA]
2 | 0.1 to 1 µM | 0.5 to 5 µM |  | Nc1ccc(C(=O)N2CCC(Nc3ncc(Cl)c(-c4c[nH]c5ccccc45)n3)CC2)c(F)c1 [Compound 67, (4-amino-2-fluorophenyl)(4-(5-chloro-4-(1H-indol-3-yl)pyrimidin-2-ylamino)piperidin-1-yl)methanone]
3 | 0.1 to 1 µM | 0.5 to 5 µM |  | Cc1nc(C)c(-c2nc(NC3CCN(C(=O)c4ccc(NC(=O)/C=C/CN(C)C)cc4)CC3)ncc2Cl)s1 [Compound 119, (E)-N-(4-(4-((5-chloro-4-(2,4-dimethylthiazol-5-yl)pyrimidin-2-yl)amino)piperidine-1-carbonyl)phenyl)-4-(dimethylamino)but-2-enamide]
4 | > 1 µM |  | > 5 µM | CN(C)C/C=C/C(=O)Nc1ccc(C(=O)N[C@@H]2CC[C@H](Nc3ncc(Cl)c(-c4cc[nH]n4)n3)C2)cc1.CN(C)C/C=C/C(=O)Nc1ccc(C(=O)N[C@H]2CC[C@@H](Nc3ncc(Cl)c(-c4cc[nH]n4)n3)C2)cc1 (mixture of isomers) [Compound 124, N-((1R,3S)-3-((5-chloro-4-(1H-pyrazol-3-yl)pyrimidin-2-yl)amino)cyclopentyl)-4-((E)-4-(dimethylamino)but-2-enamido)benzamide and N-((1S,3R)-3-((5-chloro-4-(1H-pyrazol-3-yl)pyrimidin-2-yl)amino)cyclopentyl)-4-((E)-4-(dimethylamino)but-2-enamido)benzamide]
5 | < 0.1 µM | 0.5 to 5 µM |  | CN(C)C/C=C/C(=O)NCC(=O)Nc1cccc(Nc2ncc(Cl)c(-c3c[nH]c4ccccc34)n2)c1 [Compound 137, (E)-N-(2-(3-(5-chloro-4-(1H-indol-3-yl)pyrimidin-2-ylamino)phenylamino)-2-oxoethyl)-4-(dimethylamino)but-2-enamide]
6 | 0.1 to 1 µM | < 0.5 µM |  | CN(C)C/C=C/C(=O)Nc1ccc(C(=O)N[C@@H]2CC[C@H](Nc3ncc(Cl)c(-c4cccnc4)n3)C2)cc1 (racemic) [Compound 123, N-((1R,3S)-3-((5-chloro-4-(pyridin-3-yl)pyrimidin-2-yl)amino)cyclopentyl)-4-((E)-4-(dimethylamino)but-2-enamido)benzamide and N-((1S,3R)-3-((5-chloro-4-(pyridin-3-yl)pyrimidin-2-yl)amino)cyclopentyl)-4-((E)-4-(dimethylamino)but-2-enamido)benzamide]
7 | 0.1 to 1 µM | > 5 µM |  | Nc1ccc(C(=O)N2CC[C@H](Nc3ncc(Cl)c(-c4c[nH]c5ccccc45)n3)C2)cc1 [Compound 24, (4-aminophenyl)((S)-3-(5-chloro-4-(1H-indol-3-yl)pyrimidin-2-ylamino)pyrrolidin-1-yl)methanone]
8 | < 0.1 µM | < 0.5 µM |  | CNC/C=C/C(=O)Nc1ccc(CN2CCC(Nc3ncc(Cl)c(-c4c[nH]c5ccccc45)n3)CC2)cc1 [Compound 142, (E)-N-[4-[[4-[[5-chloro-4-(1H-indol-3-yl)pyrimidin-2-yl]amino]-1-piperidyl]methyl]phenyl]-4-(methylamino)but-2-enamide]
9 | 0.1 to 1 µM | 0.5 to 5 µM |  | CN(C)C/C=C/C(=O)Nc1ccc(C(=O)N2CCC(Nc3ncc(Cl)c(-c4cccnc4)n3)CC2)cc1 [Compound 118, (E)-N-(4-(4-((5-chloro-4-(pyridin-3-yl)pyrimidin-2-yl)amino)piperidine-1-carbonyl)phenyl)-4-(dimethylamino)but-2-enamide]
10 | < 0.1 µM | 0.5 to 5 µM |  | CN(C)CC=CC(=O)Nc1ccc(C(=O)NC2CNCC(Nc3ncc(Cl)c(-c4c[nH]c5ccccc45)n3)C2)cc1 (racemic) [Compound 149, N-((+/−cis)-5-((5-chloro-4-(1H-indol-3-yl)pyrimidin-2-yl)amino)piperidin-3-yl)-4-((E)-4-(dimethylamino)but-2-enamido)benzamide]
11 | < 0.1 µM | < 0.5 µM |  | Cc1cc(C(=O)N2CCC(Nc3ncc(Cl)c(-c4c[nH]c5ccccc45)n3)CC2)ccc1NC(=O)/C=C/CN(C)C [Compound 113, (E)-N-(4-(4-(5-chloro-4-(1H-indol-3-yl)pyrimidin-2-ylamino)piperidine-1-carbonyl)-2-methylphenyl)-4-(dimethylamino)but-2-enamide]
12 | < 0.1 µM | < 0.5 µM |  | CN(C/C=C/C(=O)Nc1ccc(CN2CCC(Nc3ncc(Cl)c(-c4c[nH]c5ccccc45)n3)CC2)cc1)CC(O)CO (centres unmarked) [Compound 143, (E)-N-(4-((4-((5-chloro-4-(1H-indol-3-yl)pyrimidin-2-yl)amino)piperidin-1-yl)methyl)phenyl)-4-((2,3-dihydroxypropyl)(methyl)amino)but-2-enamide]
13 | < 0.1 µM | 0.5 to 5 µM |  | Nc1ccc(C(=O)N2CC[C@@H](Nc3ncc(Cl)c(-c4c[nH]c5ccccc45)n3)C2)cc1 [Compound 35, (4-aminophenyl)((R)-3-(5-chloro-4-(1H-indol-3-yl)pyrimidin-2-ylamino)pyrrolidin-1-yl)methanone]
14 | < 0.1 µM | < 0.5 µM |  | CN(C)C/C=C/C(=O)Nc1ccc(CN2CCC(Nc3ncc(Cl)c(-c4c[nH]c5ccccc45)n3)CC2)cc1 [Compound 106, (E)-N-(4-((4-((5-chloro-4-(1H-indol-3-yl)pyrimidin-2-yl)amino)piperidin-1-yl)methyl)phenyl)-4-(dimethylamino)but-2-enamide]
15 | < 0.1 µM | < 0.5 µM |  | CN(C)C/C=C/C(=O)N(C)c1cccc(CN2CCC(Nc3ncc(Cl)c(-c4c[nH]c5ccccc45)n3)CC2)c1 [Compound 145, (E)-N-[3-[[4-[[5-chloro-4-(1H-indol-3-yl)pyrimidin-2-yl]amino]-1-piperidyl]methyl]phenyl]-4-(dimethylamino)-N-methyl-but-2-enamide]
16 | < 0.1 µM | 0.5 to 5 µM |  | CN(C/C=C/C(=O)Nc1ccc(CN2CCC(Nc3ncc(Cl)c(-c4c[nH]c5ccccc45)n3)CC2)cc1)CC(=O)O [Compound 148, 2-[[(E)-4-[4-[[4-[[5-chloro-4-(1H-indol-3-yl)pyrimidin-2-yl]amino]-1-piperidyl]methyl]anilino]-4-oxo-but-2-enyl]-methyl-amino]acetic acid]
17 | < 0.1 µM | < 0.5 µM |  | C=CC(=O)Nc1ccc(CNC(=O)C2CC(Nc3ncc(Cl)c(-c4c[nH]c5ccccc45)n3)CN(C)C2)cc1 (racemic) [Compound 157, (+/−cis)-N-(4-acrylamidobenzyl)-5-((5-chloro-4-(1H-indol-3-yl)pyrimidin-2-yl)amino)-1-methylpiperidine-3-carboxamide]
18 | < 0.1 µM | 0.5 to 5 µM |  | N#Cc1cnc(N[C@@H]2CCN(C(=O)c3ccc(N)cc3)C2)nc1-c1c[nH]c2ccccc12 [Compound 37, 2-((R)-1-(4-aminobenzoyl)pyrrolidin-3-ylamino)-4-(1H-indol-3-yl)pyrimidine-5-carbonitrile]
19 | 0.1 to 1 µM |  |  | C=CC(=O)Nc1ccc(NC(=O)[C@@H]2C[C@@H](Nc3ncc(Cl)c(-c4c[nH]c5ccccc45)n3)CN(C)C2)cc1 (relative stereo) [Compound 159, (Trans)-N-(4-acrylamidophenyl)-5-((5-chloro-4-(1H-indol-3-yl)pyrimidin-2-yl)amino)-1-methylpiperidine-3-carboxamide]
20 | 0.1 to 1 µM |  |  | CS(=O)(=O)NC/C=C/C(=O)Nc1ccc(CN2CCC(Nc3ncc(Cl)c(-c4c[nH]c5ccccc45)n3)CC2)cc1 [Compound 158, (E)-N-(4-((4-((5-chloro-4-(1H-indol-3-yl)pyrimidin-2-yl)amino)piperidin-1-yl)methyl)phenyl)-4-(methylsulfonamido)but-2-enamide]
21 |  | < 0.5 µM |  | CN(C)C/C=C/C(=O)Nc1ccc(C(=O)N[C@H]2CC[C@@H](Nc3ncc(Cl)c(-c4c[nH]c5ccccc45)n3)C2)cc1 [Compound 130, N-((1S,3R)-3-((5-chloro-4-(1H-indol-3-yl)pyrimidin-2-yl)amino)cyclopentyl)-4-((E)-4-(dimethylamino)but-2-enamido)benzamide]
22 | < 0.1 µM |  |  | CN(C)C/C=C/C(=O)Nc1ccc(C(=O)N[C@H]2C[C@@H](Nc3ncc(Cl)c(-c4c[nH]c5ccccc45)n3)CN(C)C2)cc1 (racemic) [161/162, N-[(3S)-5-[[5-chloro-4-(1H-indol-3-yl)pyrimidin-2-yl]amino]-1-methyl-3-piperidyl]-4-[[(E)-4-(dimethylamino)but-2-enoyl]amino]benzamide]
23 |  | > 5 µM |  | Nc1ccc(C(=O)NC2CC3(C2)CC(Nc2ncc(Cl)c(-c4c[nH]c5ccccc45)n2)C3)cc1 (centres unmarked) [Compound 318, 4-amino-N-(6-((5-chloro-4-(1H-indol-3-yl)pyrimidin-2-yl)amino)spiro[3.3]heptan-2-yl)benzamide]
24 | < 0.1 µM |  |  | C=CC(=O)Nc1ccc(NC(=O)[C@H]2C[C@@H](Nc3ncc(Cl)c(-c4c[nH]c5ccccc45)n3)CN(C)C2)cc1 (relative stereo) [Compound 160, (Cis)-N-(4-acrylamidophenyl)-5-((5-chloro-4-(1H-indol-3-yl)pyrimidin-2-yl)amino)-1-methylpiperidine-3-carboxamide]

Row | SMILES | IC50 [1] | IC50 ([2]; Homo sapiens, Jurkat, 72 h) | IC50 [2]
25 | CN(C)C/C=C/C(=O)Nc1ccc(C(=O)N2[C@@H]3CC[C@H]2C[C@@H](Nc2ncc(Cl)c(-c4c[nH]c5ccccc45)n2)C3)cc1 [Compound 116, ((1R,3R,5S)-3-(5-chloro-4-(1H-indol-3-yl)pyrimidin-2-ylamino)-8-aza-bicyclo[3.2.1]octan-8-yl)(4-((E)-N-4-(dimethylamino)but-2-enamide)phenyl)methanone] | 0.1 to 1 µM | 0.5 to 5 µM | 
